In PubChem BioAssay AID1259407 (Chemical Carcinogenesis Research Information System (CCRIS), 2018):
Activity calls are given as the source filed them. No rule for the calls is given here.

Tested on: CCRIS mutagenicity, Ames/micronucleus/aberration tests
Test: CCRIS mutagenicity studies
[1] = Test System: AMES SALMONELLA TYPHIMURIUM, Strain/Indicator: TA98, Metabolic Activation: NONE, Method: STANDARD PLATE
[2] = Test System: AMES SALMONELLA TYPHIMURIUM, Strain/Indicator: TA100, Metabolic Activation: NONE, Method: STANDARD PLATE
[3] = Test System: AMES SALMONELLA TYPHIMURIUM, Strain/Indicator: TA1535, Metabolic Activation: NONE, Method: STANDARD PLATE
[4] = Test System: AMES SALMONELLA TYPHIMURIUM, Strain/Indicator: TA1537, Metabolic Activation: NONE, Method: STANDARD PLATE
[5] = Test System: AMES SALMONELLA TYPHIMURIUM, Strain/Indicator: TA1538, Metabolic Activation: NONE, Method: STANDARD PLATE
[6] = Test System: AMES SALMONELLA TYPHIMURIUM, Strain/Indicator: TA98, Metabolic Activation: HAMSTER, LIVER, S-9, AROCLOR 1254, Method: STANDARD PLATE
[7] = Test System: AMES SALMONELLA TYPHIMURIUM, Strain/Indicator: TA98, Metabolic Activation: RAT, LIVER, S-9, AROCLOR 1254, Method: STANDARD PLATE
[8] = Test System: AMES SALMONELLA TYPHIMURIUM, Strain/Indicator: TA100, Metabolic Activation: HAMSTER, LIVER, S-9, AROCLOR 1254, Method: STANDARD PLATE
[9] = Test System: AMES SALMONELLA TYPHIMURIUM, Strain/Indicator: TA100, Metabolic Activation: RAT, LIVER, S-9, AROCLOR 1254, Method: STANDARD PLATE
[10] = Test System: AMES SALMONELLA TYPHIMURIUM, Strain/Indicator: TA1535, Metabolic Activation: HAMSTER, LIVER, S-9, AROCLOR 1254, Method: STANDARD PLATE
[11] = Test System: AMES SALMONELLA TYPHIMURIUM, Strain/Indicator: TA1535, Metabolic Activation: RAT, LIVER, S-9, AROCLOR 1254, Method: STANDARD PLATE
[12] = Test System: AMES SALMONELLA TYPHIMURIUM, Strain/Indicator: TA1537, Metabolic Activation: HAMSTER, LIVER, S-9, AROCLOR 1254, Method: STANDARD PLATE
[13] = Test System: AMES SALMONELLA TYPHIMURIUM, Strain/Indicator: TA1537, Metabolic Activation: RAT, LIVER, S-9, AROCLOR 1254, Method: STANDARD PLATE
[14] = Test System: AMES SALMONELLA TYPHIMURIUM, Strain/Indicator: TA100, Metabolic Activation: NONE, Method: PREINCUBATION

O=C(O)[C@@H]1CS[C@H](c2ccccc2O)N1C(=O)CCS
mutagenic call [1]: inactive; negative
mutagenic call (Test System: AMES SALMONELLA TYPHIMURIUM, Strain/Indicator: TA98, Metabolic Activation: S-9, Method: STANDARD PLATE): inactive; negative
mutagenic call [2]: inactive; negative
mutagenic call (Test System: AMES SALMONELLA TYPHIMURIUM, Strain/Indicator: TA100, Metabolic Activation: S-9, Method: STANDARD PLATE): inactive; negative
mutagenic call [3]: inactive; negative
mutagenic call (Test System: AMES SALMONELLA TYPHIMURIUM, Strain/Indicator: TA1535, Metabolic Activation: S-9, Method: STANDARD PLATE): inactive; negative
mutagenic call [4]: inactive; negative
mutagenic call (Test System: AMES SALMONELLA TYPHIMURIUM, Strain/Indicator: TA1537, Metabolic Activation: S-9, Method: STANDARD PLATE): inactive; negative
mutagenic call [5]: inactive; negative
mutagenic call (Test System: AMES SALMONELLA TYPHIMURIUM, Strain/Indicator: TA1538, Metabolic Activation: S-9, Method: STANDARD PLATE): inactive; negative
mutagenic call (Test System: E. COLI, Strain/Indicator: WP2, Metabolic Activation: NONE, Method: STANDARD PLATE): inactive; negative
mutagenic call (Test System: E. COLI, Strain/Indicator: WP2 UVRA, Metabolic Activation: NONE, Method: STANDARD PLATE): inactive; negative
mutagenic call (Test System: E. COLI, Strain/Indicator: WP2 UVRA, Metabolic Activation: S-9, Method: STANDARD PLATE): inactive; negative

C=C(C)C(=O)OCC(CC)(COC(=O)C(=C)C)COC(=O)C(=C)C
mutagenic call [6]: inactive; negative
mutagenic call [1]: inactive; negative
mutagenic call [7]: inactive; negative
mutagenic call [8]: inactive; negative
mutagenic call [2]: inactive; negative
mutagenic call [9]: inactive; negative
mutagenic call (Test System: AMES SALMONELLA TYPHIMURIUM, Strain/Indicator: TA1535, Metabolic Activation: HAMSTER, LIVER, S-9, AROCLOR 1254 (5-10%), Method: STANDARD PLATE): inactive; negative
mutagenic call (Test System: AMES SALMONELLA TYPHIMURIUM, Strain/Indicator: TA1535, Metabolic Activation: HAMSTER, LIVER, S-9, AROCLOR 1254 (15-20%), Method: STANDARD PLATE): active; positive
mutagenic call [10]: active; positive
mutagenic call [3]: inactive; negative
mutagenic call [11]: inactive; negative
mutagenic call [12]: inactive; negative
mutagenic call [4]: inactive; negative
mutagenic call [13]: inactive; negative

O=[N+]([O-])c1cccc2c1ccc1ccccc12
mutagenic call (Test System: AMES SALMONELLA TYPHIMURIUM, Strain/Indicator: TA98(1,8-DNP6), Metabolic Activation: NONE, Method: STANDARD PLATE): active; positive
mutagenic call (Test System: AMES SALMONELLA TYPHIMURIUM, Strain/Indicator: TA98(NR), Metabolic Activation: NONE, Method: STANDARD PLATE): active; positive
mutagenic call [1]: active; positive
mutagenic call [2]: active; positive
mutagenic call (Test System: AMES SALMONELLA TYPHIMURIUM, Strain/Indicator: YG1021, Metabolic Activation: NONE, Method: STANDARD PLATE): active; positive
mutagenic call (Test System: AMES SALMONELLA TYPHIMURIUM, Strain/Indicator: YG1024, Metabolic Activation: NONE, Method: STANDARD PLATE): active; positive
mutagenic call (Test System: AMES SALMONELLA TYPHIMURIUM, Strain/Indicator: YG1026, Metabolic Activation: NONE, Method: STANDARD PLATE): active; positive
mutagenic call (Test System: AMES SALMONELLA TYPHIMURIUM, Strain/Indicator: YG1029, Metabolic Activation: NONE, Method: STANDARD PLATE): active; positive

c1ccc2c(CCC3CO3)cccc2c1 (stereo unspecified)
mutagenic call [14]: active; positive
mutagenic call [2]: active; positive
mutagenic call (Test System: AMES SALMONELLA TYPHIMURIUM, Strain/Indicator: TA1535, Metabolic Activation: NONE, Method: PREINCUBATION): active; positive
mutagenic call [3]: active; positive

O=C(CBr)c1ccccc1
mutagenic call [6]: inactive; negative
mutagenic call (Test System: AMES SALMONELLA TYPHIMURIUM, Strain/Indicator: TA98, Metabolic Activation: NONE, Method: PREINCUBATION): inactive; negative
mutagenic call [1]: inactive; negative
mutagenic call [7]: inactive; negative
mutagenic call (Test System: AMES SALMONELLA TYPHIMURIUM, Strain/Indicator: TA98, Metabolic Activation: RAT, LIVER, S-9, PCB, Method: PREINCUBATION): inactive; negative
mutagenic call [8]: inactive; negative
mutagenic call [14]: inactive; negative
mutagenic call [2]: inactive; negative
mutagenic call [9]: inactive; negative
mutagenic call (Test System: AMES SALMONELLA TYPHIMURIUM, Strain/Indicator: TA100, Metabolic Activation: RAT, LIVER, S-9, PCB, Method: PREINCUBATION): inactive; negative
mutagenic call [10]: inactive; negative
mutagenic call [3]: inactive; negative
mutagenic call [11]: inactive; negative
mutagenic call [12]: inactive; negative
mutagenic call [4]: inactive; negative
mutagenic call [13]: inactive; negative
mutagenic call (Test System: AMES SALMONELLA TYPHIMURIUM, Strain/Indicator: TA1538, Metabolic Activation: HAMSTER, LIVER, S-9, AROCLOR 1254, Method: STANDARD PLATE): inactive; negative
mutagenic call [5]: inactive; negative
mutagenic call (Test System: AMES SALMONELLA TYPHIMURIUM, Strain/Indicator: TA1538, Metabolic Activation: RAT, LIVER, S-9, AROCLOR 1254, Method: STANDARD PLATE): inactive; negative
mutagenic call (Test System: E. COLI, Strain/Indicator: WP2 UVRA, Metabolic Activation: NONE, Method: PREINCUBATION): inactive; negative
mutagenic call (Test System: MOUSE LYMPHOMA, Strain/Indicator: L5178Y (TK+/TK-), Metabolic Activation: NONE, Method: SUSPENSION/PLATE): inactive; negative. reevaluation of results: negative
mutagenic call (Test System: MOUSE LYMPHOMA, Strain/Indicator: L5178Y (TK+/TK-), Metabolic Activation: RAT, LIVER, S-9, AROCLOR 1254, Method: SUSPENSION/PLATE): active; positive. reevaluation of results: inconclusive

CC(=O)Nc1cc2c(cc1[N+](=O)[O-])[nH]c1ccccc12
mutagenic call [1]: active; positive
mutagenic call (Test System: AMES SALMONELLA TYPHIMURIUM, Strain/Indicator: TA98, Metabolic Activation: RAT, LIVER, S-9, PHENOBARBITAL, Method: STANDARD PLATE): active; positive
mutagenic call [2]: inactive; negative
mutagenic call (Test System: AMES SALMONELLA TYPHIMURIUM, Strain/Indicator: TA100, Metabolic Activation: RAT, LIVER, S-9, PHENOBARBITAL, Method: STANDARD PLATE): inactive; negative
mutagenic call [4]: inactive; negative
mutagenic call (Test System: AMES SALMONELLA TYPHIMURIUM, Strain/Indicator: TA1537, Metabolic Activation: RAT, LIVER, S-9, PHENOBARBITAL, Method: STANDARD PLATE): inactive; negative
mutagenic call [5]: active; positive
mutagenic call (Test System: AMES SALMONELLA TYPHIMURIUM, Strain/Indicator: TA1538, Metabolic Activation: RAT, LIVER, S-9, PHENOBARBITAL, Method: STANDARD PLATE): active; positive
mutagenic call (Test System: AMES SALMONELLA TYPHIMURIUM, Strain/Indicator: TA1977, Metabolic Activation: NONE, Method: STANDARD PLATE): inactive; negative
mutagenic call (Test System: AMES SALMONELLA TYPHIMURIUM, Strain/Indicator: TA1977, Metabolic Activation: RAT, LIVER, S-9, PHENOBARBITAL, Method: STANDARD PLATE): inactive; negative
